Measurements: patent publication EP2982682A1, “CHIMERIC PEPTIDE AND PHARMACEUTICAL COMPOSITION FOR TREATING ONCOLOGICAL DISEASES” (Obshestvo S Ogranichennoj Otvetstvennost`yu "Metamax", priority 2013, dated 2014)
Square brackets hold non-standard residues; d marks the D form. Ends that are not written are not given here. Ahx = NCCCCCC(=O)O

Legend:
[1] = test system: HCT116 (colon adenocarcinoma); test: Cytotoxic activity on proliferating cell lines, Annexin V/PI flow cytometry; type: cell-based, human; conditions: 5-40 µM, 24 hours
Protocol: (§1) We studied the effect of peptide sequences D37K, F26K-1, F26K-2, W26K-1, W26K-2 on the cells of transplanted cell cultures MCF-7 (breast cancer), A549 (lung adenocarcinoma), SKOV (ovarian cancer) and HCT116 (colon adenocarcinoma).
(§2) When preparing for the experiment the cells cultures were placed in 24-well plates in amount of 1 * 10^4 cells per well, incubated for 48 hours at 37°C and 5% CO2, medium DMEM (PanEco, Russia), containing glutamine, gentamicin, 10% PBS. After such incubation the cell cultures formed loose mono-layer. Experimental set-up: culture medium was replaced with the medium containing the study peptides in the concentrations of 5 µM, 10 µM, 20 µM, 40 µM; in the control samples the medium contained DMSO 20 µL to determine the effect of solvent (peptides were dissolved in DMSO). Incubation time was 24 hours. Then the cells were carefully removed from the matrix using trypsin (cells in the wells with peptides were attached stronger than the control sample), the medium was removed via centrifugation at 3,000 rounds for 7 minutes, supernatant fluid was removed and the staining was performed using double mark Annexin V/PI. Analysis was performed using flow cytometer and evaluated the number of cells including Annexin V - apoptosis, the number of cells including propidium iodide - dead cells, the number of intact cells - live cells.

MCF-7 (breast cancer) [2] = test: as above; type: cell-based; conditions: 5-40 µM, 24 hours
Protocol: as §1, §2

HCT-116 = test: Cytostatic effect: cell cycle phases on DNA-histograms after synchronization in G0/G1; type: cell-based, human
Protocol: (§3) Using cell lines MCF-7, HCT-116, A549 (lung adenocarcinoma) and SKOV (ovarian cancer) we studied the effect of the peptide sequences on the cells proliferative activity. The experiments involved synchronization of the cells in G0/G1-phase of the cells cycle using depleted culture medium. The cells in 24-well plate were held for 48 hours in the medium containing 0.5% PBS, then the synchronization block was removed via replacement of the medium with one containing 5% PBS and the study peptides in different concentrations. It was incubated for 24 hours, and then the cells were removed from the matrix using trypsin, washed in PSB, fixed in ethanol. Staining of samples, washing from ethanol in PBS using centrifugation, incubation with RNA-ase, staining with propidium iodide. Analysis was performed using flow cytometry, we evaluated the distribution of cells in the cell cycle phases on DNA-histograms using ModFit 3.0 software. For cells cultures MCF-7 and HCT-116 we studied the effect of 5 peptide sequences in concentrations of 10 and 40 µM. It was shown that the study sequences are able to decrease the proliferating activity of the dividing cells (Figure 9).

MCF-7 = test: as above; type: cell-based; conditions: 10 and 40 µM
Protocol: as §3

SKOV (ovarian cancer) = test: Cytostatic effect: cell cycle phases and hypodiploid peak on DNA-histograms after synchronization; type: cell-based; conditions: 5-40 µM, 24 hours
Protocol: as §3
When studying the effect of the peptide sequences on SKOV cells culture the incubation was performed with the sequences F26K-1, F26K-2, W26K-1, and W26K-2. […]

Bcl-2 in HCT-116 cells = test: Level of Bcl-2 in cells, antibody staining and flow cytometry; type: cell-based, human; conditions: 24 hours
Protocol: Example 4. Investigation of the peptide sequences effect on change in the level of Bcl-2 Monoclonal antibodies Anti Human Bcl-2 (Caltag Laboratories, USA) were used to estimated change in the level of Bcl-2 in HCT-116 cells when incubated with the study peptide sequence. The cells were transferred to a 24-well plate at 1 x 10^4 per well, grown for 48 hours under normal conditions (medium DMEM, 10%), then synchronized using the depleted medium containing 0.5% PBS for 48 hours. Upon removing the synchronizing block the medium containing 10% PBS was added to the cells, and the peptide sequences were studied at concentrations of 10 and 40 µM. Incubation with the peptides was performed for 24 hours, then the culture was removed with the help of trypsin, fixed for one hour with PBS containing 1% formaldehyde, and then fixed with ethanol. The staining and the analysis were performed according to the antibodies manufacturer's instructions. […] It is thereby shown that the apoptosis induced by introduction of the peptide sequences into the culture medium is explained by influence of the peptides on specific molecular processes of the cell.

pRb in MCF-7 = test: Level of underphosphorylated pRb by flow cytometry; type: cell-based; conditions: 10 and 40 µM
From the text: (§4) Although the literature describes the retention of such peptides properties to inhibit a phosphorylating function for cyclin-dependent kinases, this was confirmed in cell extracts. We monitored changes in the level of pRB phosphorylation - molecular target of type D cyclin kinase against the background of the investigated peptides, including the sequences, having homology with p16INK4a, at the cellular level with the help of flow cytometry method.
(§5) Flow cytometry allows to render the cells, where the pRb product is in the "underphosphorylated" state. The fluorescently labeled antibodies interact with "underphosphorylated" pRb.
(§6) To determine the amount of "underphosphorylated" pRb, a series of experiments was performed, where the study peptide sequences were added to the cell cultures, synchronized with the help of depleted cell culture medium method (MCF-7, HCT-116), after removing the synchronization block, then the cells were sampled every two hours. A part of the cells from each plate was fixed to further define the phases of the cell cycle, and to determine the amount of the "underphosphorylated" pRb. Also a negative control was set in the form of synchronized cells samples, but without added peptide. It was shown that introduction of the peptide sequences into the cell culture inhibits the pRb phosphorylation and reduces its maximum level in the culture (Figure 19).

pRb in HCT-116 = test: Level of underphosphorylated pRb by flow cytometry; type: cell-based, human
From the text: as §4, §5, §6
As it is seen in Figure 19, the level of "underphosphorylated" pRb begins to grow after removal of the synchronization block in the control samples without addition of the peptide, and to a certain point (4 or 6 hours of incubation), depending on the cell line, it reaches a maximum and then begins to decline. In the samples with peptides the level of "underphosphorylated" pRb begins to increase later and reaches its maximum after 12-18 hours of incubation, the delay in reaching the maximum level of pRb depends on concentration of the peptide sequences. […] We analyzed the level of "underphosphorylated" pRb every two hours; the maximum incubation time was 24 hours.

pRb in SKOV cell line = test: Level of underphosphorylated pRb by flow cytometry; type: cell-based; conditions: 10 and 40 µM
Protocol: as §5
In the study of the "underphosphorylated" pRb level using SKOV cell line, the delay effect in formation of "underphosphorylated" pRb was lower than for cultures MCF-7 and HCT-116, although this cell line was previously shown to have the proliferation delay effect during incubation of the cells with the study peptide sequences. […] Obvious "underphosphorylated" pRb formation delay effect compared to the control sample, however, in the case of SKOV cell line, was somewhat lower than that of cultures of MCF-7 and HCT-116.

MCF-7 (breast cancer) [3] = test: Combined effect with Taxol or 5-fluorouracil, Annexin and propidium iodide flow cytometry; type: cell-based; conditions: 10, 20, 30 µM, 24 hours
Protocol: In cell culture MCF-7 (breast cancer) there was investigated the combined effect of DA, 5-fluorouracil and Taxol, and the sequences D37K and F26K-2 (in the cytotoxicity studies the sequence had the most pronounced effect on the MCF-7 culture). The cells were grown in 24-well plates to 70% of the monolayer, followed by replacement of the medium with the medium containing the target sequence and drugs in concentrations of 10, 20 and 30 µM. The incubation time was 24 hours. Analyzed cells, which entered into apoptosis, were detected using Annexin and propidium iodide staining, flow cytometry.

Substance: H-FLDAILLI[Ahx] [F26K-2]
- apoptosis level (Annexin V) [1]: more pronounced pro-apoptosis effect
- apoptosis level (Annexin V) (MCF-7 (breast cancer) [2]): more pronounced pro-apoptosis effect
- antiproliferative effect (HCT-116; 10 and 40 µM): most clear antiproliferative effect
- delay in cells leaving the rest phase (HCT-116; synchronized culture, 40 µM (Fig. 10)): 8 to 12 h
- antiproliferative effect (MCF-7): most clear antiproliferative effect
- antiproliferative effect (cells in G0/G1 and S+G2/M) (SKOV (ovarian cancer)): caused the delay of proliferation
- inhibition of the expression of Bcl-2 protein (Bcl-2 in HCT-116 cells; 10 and 40 µM): strongest inhibition
- decrease of the level of Bcl-2-positive cells (Bcl-2 in HCT-116 cells; 40 µM): over 15%
- delay in the formation of "underphosphorylated" pRb (pRb in MCF-7): greatest delay
- delay in formation of "underphosphorylated" pRb (pRb in HCT-116; 10 and 40 µM): greatest effect of the delay
- incubation time of maximum level of "underphosphorylated" pRb (pRb in HCT-116; peptide 10 µM): 16 hours
- incubation time of maximum level of "underphosphorylated" pRb (pRb in HCT-116; peptide 40 µM): 20 hours
- delay in formation of "underphosphorylated" pRb as compared to the control (pRb in SKOV cell line): 4-10 hours
- combined use with 5-fluorouracil, cytotoxic effect (MCF-7 (breast cancer) [3]): linear amplification
- combined use with Taxol, level of apoptosis (MCF-7 (breast cancer) [3]): summation of cytotoxic effects
